Source: US11939348B2, “Compositions comprising a phosphorus derivative of nicotinamide riboside and methods for modulation of nicotinamide adenine dinucleotide” (Metro International Biotech, LLC, priority 2019, dated 2024)

Test system: AML12 cells
Assay: NAD(H) normalized to total protein in treated AML12 cells compared to untreated cells
Assay type: cell-based
Details: compound at 2 mM, 1 mM and 500 micromolar, untreated cells normalized to 1.0, FIG. 1
Text: Compound A is Formula I, n=2. Compound B is Formula I, n=1.

| Structure (SMILES) | NAD(H) normalized to total protein in treated AML12 cells compared to untreated cells |
| --- | --- |
| NC(=O)c1ccc[n+]([C@@H]2O[C@H](COP(=O)([O-])OP(=O)([O-])OCC3O[C@@H]([n+]4cccc(C(N)=O)c4)[C@H](O)[C@@H]3O)[C@@H](O)[C@H]2O)c1 (some centres unmarked) [Compound A] | possess NAD(H) boosting activity |
| NC(=O)c1ccc[n+]([C@@H]2O[C@H](COP(=O)(O)OC[C@H]3O[C@@H]([n+]4cccc(C(N)=O)c4)[C@H](O)[C@@H]3O)[C@@H](O)[C@H]2O)c1 [Compound B, bis(((2R,3S,4R,5R)-5-(3-carbamoylpyridin-1-ium-1-yl)-3,4-dihydroxytetrahydrofuran-2-yl)methyl) phosphate acetate] | possess NAD(H) boosting activity |
